Reference: patent publication US9234000B2, “Benzylamine derivatives as inhibitors of plasma kallikrein” (KalVista Pharmaceuticals Limited, priority 2011, dated 2016)
Values after ≈ are worked out from the molar mass of the structure shown. Where two headings read alike, the source gives them in different places.

Experiments:
[1] = Determination of thermodynamic solubility in phosphate buffer; assay type: physicochemical; settings: pH 7.4, aqueous buffer, thermodynamic from solid, ammonium phosphate buffer pH7.4, 290 mOsm, 37° C., nominal 1 mg/mL, read-out: Solubility in PO4 buffer
Description: Determination of Thermodynamic Solubility in Phosphate Buffer
The thermodynamic solubility of compound was determined in Ammonium Phosphate Buffer (pH7.4, 290 mOsm). Compounds were made up at a nominal concentration of 1 mg/mL, vortexed then placed on a shaker for 1 h, 37° C. at approximately 950 rpm. Following incubation samples were transferred to eppendorf tubes and centrifuged at 15,000 g (r.c.f.) for 10 minutes at 37° C. The concentration of compound in the supernatant was determined by LC-MS/MS analysis using a calibration line prepared from a DMSO stock.

Human plasma kallikrein = Human plasma kallikrein (Homo sapiens (Human), UniProt P03952); assay: Determination of the IC50 for plasma kallikrein; assay type: biochemical; settings: 37° C., read-out: IC50 (human PKal)
In short: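 Human plasma kallikrein incubated at 37° C with fluorogenic substrate H-DPro-Phe-Arg-AFC and varying compound concentrations. Initial reaction rate followed by absorbance change at 410 nm to give residual activity and IC50.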

Human KLK1 = Human KLK1 (Homo sapiens (Human), UniProt P06870); assay: Determination of the IC50 for KLK1; assay type: biochemical; settings: Human KLK1, 37° C., substrate H-DVal-Leu-Arg-AFC
In short: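 IC50 values reflect residual human KLK1 activity, read as initial rate from optical absorbance change at 410 nm. Incubations ran at 37° C with H-DVal-Leu-Arg-AFC as substrate across a compound concentration series.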

physchem = settings: pH 7
Description: Determination of the Kinetic Solubility in Phosphate Buffer
After shaking for approximately 30 seconds the reduction in light transmission of these samples, at 650 nm, was measured (Molecular Devices Spectromax UV/visible spectrophotometer). A second measurement was taken at approximately 30 seconds later.

[2] = fluorogenic substrate H-DPro-Phe-Arg-AFC

Chain of Human plasma kallikrein (P03952 391-638): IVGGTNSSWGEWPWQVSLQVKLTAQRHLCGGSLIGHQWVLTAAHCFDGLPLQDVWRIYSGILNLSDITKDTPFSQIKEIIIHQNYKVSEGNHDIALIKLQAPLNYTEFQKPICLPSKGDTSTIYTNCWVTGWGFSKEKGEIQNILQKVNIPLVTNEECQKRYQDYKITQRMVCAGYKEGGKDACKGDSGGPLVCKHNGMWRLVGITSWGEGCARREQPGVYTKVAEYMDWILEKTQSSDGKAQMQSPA
Chain of Human plasma kallikrein (P03952 20-390 partner): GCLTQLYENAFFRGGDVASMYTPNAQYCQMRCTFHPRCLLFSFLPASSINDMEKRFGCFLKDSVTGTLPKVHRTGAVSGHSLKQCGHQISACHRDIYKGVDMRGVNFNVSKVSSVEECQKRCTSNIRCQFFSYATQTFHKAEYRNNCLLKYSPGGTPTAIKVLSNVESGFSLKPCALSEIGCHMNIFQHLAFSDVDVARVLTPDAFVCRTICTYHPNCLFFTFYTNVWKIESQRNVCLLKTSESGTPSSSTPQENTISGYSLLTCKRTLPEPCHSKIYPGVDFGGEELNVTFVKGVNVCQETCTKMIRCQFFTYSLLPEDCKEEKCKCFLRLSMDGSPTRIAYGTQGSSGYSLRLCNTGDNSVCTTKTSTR
Chain of Human KLK1 (P06870 25-262): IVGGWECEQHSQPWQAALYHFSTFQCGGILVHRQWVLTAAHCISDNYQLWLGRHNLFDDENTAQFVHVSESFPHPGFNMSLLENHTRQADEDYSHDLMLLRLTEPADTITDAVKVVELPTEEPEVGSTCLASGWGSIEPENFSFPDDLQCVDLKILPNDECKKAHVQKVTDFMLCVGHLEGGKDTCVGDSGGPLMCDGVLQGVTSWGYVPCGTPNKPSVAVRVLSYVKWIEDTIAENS

SMILES: CCOc1ccc(C[C@@H](NC(=O)c2ccccn2)C(=O)N[C@@H](Cc2ccccc2)C(=O)NCc2ccc(CN)c(Cl)c2)cc1 [Example 159, Pyridine-2-carboxylic acid [(R)-1-[(S)-1-(4-aminomethyl-3-chloro-benzylcarbamoyl)-2-phenyl-ethylcarbamoyl]-2-(4-ethoxy-phenyl)-ethyl]-amide]
- solubility at 1 h [1]: 1.15 µg/mL (≈ 1.87 µM)
- IC50 (Human plasma kallikrein; substrate H-DPro-Phe-Arg-AFC): 15 nM
- IC50 (Human KLK1; Table 13): > 10000 nM

SMILES: CCOc1ccc(C[C@@H](NC(=O)C2CCCCC2)C(=O)N[C@@H](Cc2ccccc2)C(=O)NCc2ccc(CN)cc2)cc1 [Example 75, Cyclohexanecarboxylic acid [(R)-1-[(S)-1-(4-aminomethyl-benzylcarbamoyl)-2-phenyl-ethylcarbamoyl]-2-(4-ethoxy-phenyl)-ethyl]-amide]
- solubility at 1 h [1]: 1.06 µg/mL (≈ 1.81 µM)
- IC50 (Human plasma kallikrein; substrate H-DPro-Phe-Arg-AFC): 270 nM
- IC50 (Human KLK1; Table 13): > 10000 nM

SMILES: CCOc1ccc(C[C@@H](NC(=O)c2cccs2)C(=O)N[C@@H](Cc2cccnc2)C(=O)NCc2ccc(CN)cc2)cc1 [Example 162, Thiophene-2-carboxylic acid [(R)-1-[(S)-1-(4-aminomethyl-benzylcarbamoyl)-2-pyridin-3-yl-ethylcarbamoyl]-2-(4-ethoxy-phenyl)-ethyl]-amide]
- solubility at 1 h [1]: 69.7 µg/mL (≈ 119 µM)
- IC50 (Human plasma kallikrein; substrate H-DPro-Phe-Arg-AFC): 10 nM
- IC50 (Human KLK1; Table 13): > 10000 nM

SMILES: CCOc1ccc(C[C@@H](NC(=O)c2ccno2)C(=O)N[C@@H](Cc2cccnc2)C(=O)NCc2ccc(CN)cc2)cc1 [Example 174, Isoxazole-5-carboxylic acid [(R)-1-[(S)-1-(4-aminomethyl-benzylcarbamoyl)-2-pyridin-3-yl-ethylcarbamoyl]-2-(4-ethoxy-phenyl)-ethyl]-amide]
- solubility at 1 h [1]: 233 µg/mL (≈ 408 µM)
- IC50 (Human plasma kallikrein; substrate H-DPro-Phe-Arg-AFC): 45 nM
- IC50 (Human KLK1; Table 13): > 10000 nM

SMILES: CCOc1ccc(C[C@@H](NC(=O)c2[nH]ccc2C)C(=O)N[C@@H](Cc2ccccc2)C(=O)NCc2ccc(CN)cc2)cc1 [Example 124, 3-Methyl-1H-pyrrole-2-carboxylic acid [(R)-1-[(S)-1-(4-aminomethyl-benzylcarbamoyl)-2-phenyl-ethylcarbamoyl]-2-(4-ethoxy-phenyl)-ethyl]-amide]
- solubility at 1 h [1]: 64.5 µg/mL (≈ 111 µM)
- IC50 (Human plasma kallikrein; substrate H-DPro-Phe-Arg-AFC): 20 nM
- IC50 (Human KLK1; Table 13): 8400 nM

SMILES: CCOc1ccc(C[C@@H](NC(=O)c2ccno2)C(=O)N[C@@H](Cc2ccccc2)C(=O)NCc2ccc(CN)cc2)cc1 [Example 79, Isoxazole-5-carboxylic acid [(R)-1-[(S)-1-(4-aminomethyl-benzylcarbamoyl)-2-phenyl-ethylcarbamoyl]-2-(4-ethoxy-phenyl)-ethyl]-amide]
- solubility at 1 h [1]: 2.4 µg/mL (≈ 4.21 µM)
- IC50 (Human plasma kallikrein; substrate H-DPro-Phe-Arg-AFC): 38 nM
- IC50 (Human KLK1; Table 13): 8600 nM

SMILES: CCCOc1ccc(C[C@@H](NC(=O)c2ccccc2)C(=O)N[C@@H](Cc2ccccc2)C(=O)NCc2ccc(CN)cc2)cc1 [Example 131, N-[(R)-1-[(S)-1-(4-Aminomethyl-benzylcarbamoyl)-2-phenyl-ethylcarbamoyl]-2-(4-propoxy-phenyl)-ethyl]-benzamide]
- solubility at 1 h [1]: 0.56 µg/mL (≈ 0.945 µM)

SMILES: CCOc1ccc(C[C@@H](NC(=O)c2ccc(OC)cc2)C(=O)N[C@@H](Cc2ccccc2)C(=O)NCc2ccc(CN)cc2)cc1 [Example 95, N-[(R)-1-[(S)-1-(4-Aminomethyl-benzylcarbamoyl)-2-phenyl-ethylcarbamoyl]-2-(4-ethoxy-phenyl)-ethyl]-4-methoxy-benzamide]
- solubility at 1 h [1]: 2.05 µg/mL (≈ 3.37 µM)

SMILES: CCOc1ccc(C[C@@H](NC(=O)c2ccccc2)C(=O)N[C@@H](Cc2c[nH]c3ccccc23)C(=O)NCc2ccc(CN)cc2)cc1 [Example 176, N-[(R)-1-[(S)-1-(4-Aminomethyl-benzylcarbamoyl)-2-(1H-indol-3-yl)-ethylcarbamoyl]-2-(4-ethoxy-phenyl)-ethyl]-benzamide]
- solubility at 1 h [1]: 2.28 µg/mL (≈ 3.69 µM)

SMILES: CCOc1ccc(C[C@@H](N)C(=O)N(C)[C@@H](Cc2ccccc2)C(=O)NCc2ccc(CN)cc2)cc1 [Example 25, (R)-2-Amino-N-[(S)-1-(4-aminomethyl-benzylcarbamoyl)-2-phenyl-ethyl]-3-(4-ethoxy-phenyl)-N-methyl-propionamide]
- solubility in PO4 buffer (physchem): > 235 µM
- IC50 (Human plasma kallikrein; [2]): 340 nM
- IC50 (Human KLK1; Table 12): 6300 nM

SMILES: NCc1ccc(CNC(=O)[C@H](Cc2ccc(Cl)c(Cl)c2)NC(=O)[C@H](N)CC2CCCCC2)cc1 [Example 20, (R)-2-Amino-N-[(S)-1-(4-aminomethyl-benzylcarbamoyl)-2-(3,4-dichloro-phenyl)-ethyl]-3-cyclohexyl-propionamide]
- solubility in PO4 buffer (physchem): > 235 µM
- IC50 (Human plasma kallikrein; [2]): 730 nM
- IC50 (Human KLK1; Table 12): 3700 nM

SMILES: CN(CC(=O)O)[C@H](CC1CCCCC1)C(=O)N[C@@H](Cc1ccccc1)C(=O)NCc1ccc(CN)cc1 [Example 29, ({(R)-1-[(S)-1-(4-Aminomethyl-benzylcarbamoyl)-2-phenyl-ethylcarbamoyl]-2-cyclohexyl-ethyl}-methyl-amino)-acetic acid]
- solubility in PO4 buffer (physchem): > 235 µM
- IC50 (Human plasma kallikrein; [2]): 300 nM
- IC50 (Human KLK1; Table 12): > 10000 nM

SMILES: CCCN[C@H](Cc1ccc(OCC)cc1)C(=O)N(C)[C@@H](Cc1ccccc1)C(=O)NCc1ccc(CN)cc1 [Example 35, (R)-N-[(S)-1-(4-Aminomethyl-benzylcarbamoyl)-2-phenyl-ethyl]-3-(4-ethoxy-phenyl)-N-methyl-2-propylamino-propionamide]
- solubility in PO4 buffer (physchem): > 235 µM
- IC50 (Human plasma kallikrein; [2]): 2000 nM
- IC50 (Human KLK1; Table 12): > 10000 nM

SMILES: CN[C@H](CC1CCCCC1)C(=O)N[C@@H](Cc1ccccc1)C(=O)NCc1ccc(CN)c(F)c1 [Example 40, (R)-N-[(S)-1-(4-Aminomethyl-3-fluoro-benzylcarbamoyl)-2-phenyl-ethyl]-3-cyclohexyl-2-methylamino-propionamide]
- solubility in PO4 buffer (physchem): > 235 µM
- IC50 (Human plasma kallikrein; [2]): 1800 nM
- IC50 (Human KLK1; Table 12): > 10000 nM

SMILES: CCCN(CCC)[C@H](CC1CCCCC1)C(=O)N[C@@H](Cc1ccccc1)C(=O)NCc1ccc(CN)cc1 [Example 53, (R)-N-[(S)-1-(4-Aminomethyl-benzylcarbamoyl)-2-phenyl-ethyl]-3-cyclohexyl-2-dipropylamino-propionamide]
- solubility in PO4 buffer (physchem): > 235 µM
- IC50 (Human plasma kallikrein; [2]): 650 nM
- IC50 (Human KLK1; Table 12): > 10000 nM

SMILES: CCOc1ccc(C[C@@H](NC(=O)CC)C(=O)N[C@@H](Cc2ccccc2)C(=O)NCc2ccc(CN)cc2)cc1 [Example 1, (S)—N-(4-Aminomethyl-benzyl)-2-[(R)-3-(4-ethoxy-phenyl)-2-propionylamino-propionylamino]-3-phenyl-propionamide]
- solubility in PO4 buffer (physchem): > 235 µM
- IC50 (Human plasma kallikrein; [2]): 89 nM
- IC50 (Human KLK1; Table 12): > 1000 nM

SMILES: CCOc1ccc(C[C@@H](N)C(=O)N[C@@H](Cc2ccc(Cl)c(Cl)c2)C(=O)NCc2ccc(CN)cc2)cc1 [Example 14, (R)-2-Amino-N-[(S)-1-(4-aminomethyl-benzylcarbamoyl)-2-(3,4-dichloro-phenyl)-ethyl]-3-(4-ethoxy-phenyl)-propionamide]
- solubility in PO4 buffer (physchem): > 235 µM
- IC50 (Human plasma kallikrein; [2]): 400 nM
- IC50 (Human KLK1; Table 12): 3700 nM

SMILES: CCOc1ccc(C[C@@H](N)C(=O)N[C@@H](Cc2ccccc2)C(=O)NCc2ccc(CN)cc2)cc1 [Example 5, (R)-2-Amino-N-[(S)-1-(4-aminomethyl-benzylcarbamoyl)-2-phenyl-ethyl]-3-(4-ethoxy-phenyl)-propionamide]
- solubility in PO4 buffer (physchem): > 235 µM
- IC50 (Human plasma kallikrein; [2]): 460 nM
- IC50 (Human KLK1; Table 12): 160 nM

SMILES: CCOc1ccc(C[C@@H](NC(=O)c2ccc(C)cc2)C(=O)N[C@@H](Cc2ccccc2)C(=O)NCc2ccc(CN)cc2)cc1 [Example 92, N-[(R)-1-[(S)-1-(4-Aminomethyl-benzylcarbamoyl)-2-phenyl-ethylcarbamoyl]-2-(4-ethoxy-phenyl)-ethyl]-4-methyl-benzamide]
- solubility at 1 h [1]: 0.2 µg/mL (≈ 0.337 µM)

SMILES: CCOc1ccc(C[C@@H](NC(=O)CC)C(=O)N(C)[C@@H](Cc2ccccc2)C(=O)NCc2ccc(CN)cc2)cc1 [Example 26, (S)-N-(4-Aminomethyl-benzyl)-2-{[(R)-3-(4-ethoxy-phenyl)-2-propionylamino-propionyl]-methyl-amino}-3-phenyl-propionamide]
- solubility in PO4 buffer (physchem): > 235 µM
- IC50 (Human plasma kallikrein; [2]): 81 nM
- IC50 (Human KLK1; Table 12): > 10000 nM

SMILES: CN(CC(=O)O)[C@H](CC1CCCCC1)C(=O)N[C@@H](Cc1ccccc1)C(=O)NCc1ccc(CN)c(F)c1 [Example 42, ({(R)-1-[(S)-1-(4-Aminomethyl-3-fluoro-benzylcarbamoyl)-2-phenyl-ethylcarbamoyl]-2-cyclohexyl-ethyl}-methyl-amino)-acetic acid]
- solubility in PO4 buffer (physchem): > 235 µM
- IC50 (Human plasma kallikrein; [2]): 530 nM
- IC50 (Human KLK1; Table 12): > 10000 nM

SMILES: CCOc1ccc(C[C@@H](NC(=O)CC)C(=O)N2CC[C@H](c3ccccc3)[C@H]2C(=O)NCc2ccc(CN)cc2)cc1 [Example 67, (2S,3R)-1-[(R)-3-(4-Ethoxy-phenyl)-2-propionylamino-propionyl]-3-pheny-pyrrolidine-2-carboxylic acid 4-aminomethyl-benzylamide]
- solubility in PO4 buffer (physchem): > 235 µM
- IC50 (Human plasma kallikrein; [2]): 1600 nM
- IC50 (Human KLK1; Table 12): > 10000 nM
